Assays:
[1] = tested on: male CD rats; test: Adjuvant-Induced Developing Arthritis Assay; assay type: in vivo; settings: Rattus norvegicus, po, 336 h, 14 days from adjuvant injection, non-injected hind paw volume; for inhibition in vivo at 25 mg/kg: 25 mg/kg orally once daily; for inhibition in vivo at 50 mg/kg: 50 mg/kg orally once daily
Source text: This assay is used to determine the ability of compounds to affect the immunological processes involved in the induction and development of arthritis and represents a standard model for which there is good correlation with human efficacy. It is described and discussed in Newbould, B. B., Chemotherapy of Arthritis Induced in Rats by Mycobacterial Adjuvant., Brit. J. Pharmacol. 21:127-136 (1963) and Federation Proceedings, Models Used for the Study and Therapy of Rheumatoid Arthritis - Symposium of the American Society for Pharmacology and Experimental Therapeutics, Vol. 32, No. 2 (1973). The procedural details and results observed in the experiments reported here are as follows.
(§1) Polyarthritis is induced in male CD rats (150-170 g) as follows. Heat-killed Mycobacterium butyricum (0.1 ml of a […] 5 mg/ml adjuvant suspension in light mineral oil) is injected subcutaneously into the plantar surface of the right hind foot of each animal. At least 10 rats are used in each test group. Animals are dosed orally with one of the compounds under assay immediately after adjuvant injection, and once daily for a total of 14 days. Untreated normal and arthritic control groups are used as comparison for test compound effect. Foot volumes are measured 24 hours after the final dose by mercury displacement to the lateral malleolus. Mean displacement volumes and their standard errors are calculated for the non-injected hind paws.
The results are expressed as the percent of the mean displacement volume of the control observed in animals treated with the specified compound at the indicated daily dosage level and are as set forth in Table 1: […]

[2] = tested on: Rats in which polyarthritis has become established; test: Adjuvant-Induced Established Arthritis Assay; assay type: in vivo, rat; settings: days 14-27, non-injected paw volume
Method: as §1
This assay is used to determine the ability of compounds to affect an established chronic inflammatory condition.
Polyarthritis is induced as described in Example 8. Rats in which polyarthritis has become established are selected 14 days after receiving the adjuvant suspension. They are treated daily with oral doses of test compound for 14 days (days 14-27). Foot volumes of the non-injected paws are measured as in 8, 24 hours after the final dose. Untreated arthritic control groups are used as comparison for test compound effect as described in Example 8.

## Cc1ccc2[nH]c(S(=O)(=O)CC(F)(F)F)nc2c1 [Example 1, 5-Methyl-2-(2,2,2-trifluoroethylsulfonyl)-1H-benzimidazole]
[1]
  inhibition in vivo at 25 mg/kg: 52%
  inhibition in vivo at 50 mg/kg: 72%
[2]; 50 mg/kg orally daily
  % Inhibition: 30%
[2]; 75 mg/kg orally daily
  % Inhibition: 42%
[2]; 100 mg/kg orally daily
  % Inhibition: 60%

## O=S(=O)(CC(F)(F)F)c1nc2cc(Cl)ccc2[nH]1 [Example 2, 5-Chloro-2-(2,2,2-trifluoroethylsulfonyl)-1H-benzimidozole]
[1]
  inhibition in vivo at 25 mg/kg: 28%

## O=S(=O)(CC(F)(F)F)c1nc2cc(Cl)c(Cl)cc2[nH]1 [Example 3, 5,6-Dichloro-2-(2,2,2-trifluoroethylsulfonyl)-1H-benzimidazole]
[1]
  inhibition in vivo at 25 mg/kg: 24%

## O=S(=O)(CC(F)(F)F)c1nc2ccccc2[nH]1 [Example 4, 2-(2,2,2-Trifluoroethylsulfonyl)-1H-benzimidazole]
[1]
  inhibition in vivo at 25 mg/kg: 52%
[2]; 50 mg/kg orally daily
  % Inhibition: 45%

## O=S(=O)(CC(F)(F)F)c1nc2cc(F)ccc2[nH]1 [Example 5, 5-Fluoro-2-(2,2,2-trifluoroethylsulfonyl)-1H-benzimidazole]
[1]
  inhibition in vivo at 25 mg/kg: 43%

## Cc1cc2nc(S(=O)(=O)CC(F)(F)F)[nH]c2cc1C [Example 6, 5,6-Dimethyl-2-(2,2,2-trifluoroethylsulfonyl)-1H-benzimidazole]
[1]
  inhibition in vivo at 25 mg/kg: 18%

## CCc1ccc2[nH]c(S(=O)(=O)CC(F)(F)F)nc2c1 [Example 7, 5-Ethyl-2-(2,2,2-trifluoroethylsulfonyl)-1H-benzimidazole]
[1]
  inhibition in vivo at 25 mg/kg: 34%

## Cc1cc2nc(S(=O)(=O)CC(F)(F)F)[nH]c2cc1F [Example 8, 6-Fluoro-5-methYl-2-(2,2,2-trifluoroethylsulfonyl)-1H-benzimidazole]
[1]
  inhibition in vivo at 50 mg/kg: 64%
